From patent US7192906B2, “Substituted pyrazole derivatives, production process thereof, and herbicide compositions containing the derivatives” (SDS Biotech K.K., priority 2001, dated 2007)

Key:
Type in all cases: in vivo
[1] = tested on: Rice (Oryza sativa); experiment: Test Example 3 paddy field treatment, crop phytotoxicity; settings: active ingredient 1 kg per hectare, index 0-5; for Herbicidal activity OS (phytotoxicity to rice): paddy field treatment, transplanted rice Koshihikari, wettable powder, 21st day after the dropping; for Herbicidal activity (phytotoxicity) OS: Table 6, paddy field treatment, transplanted rice, 21st day after dropping
Method: (§1) A plastic pot of 130 cm^2 was filled with paddy soil, and soil puddling was carried out to adjust the submerged depth to 4 cm. Subsequently, seeds of Echinochloa crusgalli, Monochoria vaginalis, Ammannia multiflora and Scirpus juncoides were sowed, and rice (Oryza sative, variety: Koshihikari) of two-leaf period was transplanted by 2 rice plants of 1 stub per pot at a depth of 3 cm. On the 10th day after the transplantation, the wettable powder prepared in Formulation Example 1 was diluted with water such that the amount of the active ingredient became 1 kg per hectare, and then dropped to diffuse on the water surface. On the 21st day after the dropping, observation and evaluation were carried out according to the aforesaid criteria.
(§2) Herbicidal activity was evaluated based on the following criteria.
(§3) • 5: herbicidal effect of not less than 90%, or phytotoxicity of 90% or more • 4: herbicidal effect of not less than 70% and less than 90%, or phytotoxicity of 70% or more and less than 90% • 3: herbicidal effect of not less than 50% and less than 70%, or phytotoxicity of 50% or more and less than 70% • 2: herbicidal effect of not less than 30% and less than 50%, or phytotoxicity of 30% or more and less than 50% • 1: herbicidal effect of not less than 10% and less than 30%, or phytotoxicity of 10% or more and less than 30% • 0: herbicidal effect of not less than 0% and less than 10%, or phytotoxicity of 0% or more and less than 10%

[2] = tested on: Ammannia multiflora; experiment: Test Example 3 paddy field treatment; settings: active ingredient 1 kg per hectare, index 0-5
Method: as §1, §2, §3

[3] = tested on: Echinochloa crusgalli; experiment: Test Example 3 paddy field treatment; settings: active ingredient 1 kg per hectare, index 0-5
Method: as §1, §2, §3

[4] = tested on: Monochoria vaginalis; experiment: Test Example 3 paddy field treatment; settings: active ingredient 1 kg per hectare, index 0-5
Method: as §1, §2, §3

[5] = tested on: Scirpus juncoides; experiment: Test Example 3 paddy field treatment; settings: active ingredient 1 kg per hectare, index 0-5
Method: as §1, §2, §3

[6] = tested on: Setaria viridis; experiment: Test Example 1 upland field foliage treatment; settings: Table 4, upland field foliage treatment, index 0-5
Method: (§4) A plastic pot of 130 cm^2 was filled with upland soil. Subsequently, weed seeds of Setaria viridis, Digitaria adscendens, Chenopodium album and Stellaria media, and crop seeds of soybean (Glycine max) and wheat (Triticum aestivum), were sowed and covered with soil of about 1 cm thickness. On the 14th day after the sowing, the wettable powder prepared in Formulation Example 1 was diluted with water such that the amount of the active ingredient became 1 kg per hectare, and then uniformly applied to the plant leaf surfaces. On the 21st day after the application, observation and evaluation were carried out according to the criteria described below.
as §2, §3

[7] = tested on: Stellaria media; experiment: Test Example 1 upland field foliage treatment; settings: Table 4, upland field foliage treatment, index 0-5
Method: as §4, §2, §3

[8] = tested on: Chenopodium album; experiment: Test Example 1 upland field foliage treatment; settings: Table 4, upland field foliage treatment, index 0-5
Method: as §4, §2, §3

[9] = tested on: Digitaria adscendens; experiment: Test Example 1 upland field foliage treatment; settings: Table 4, upland field foliage treatment, index 0-5
Method: as §4, §2, §3

[10] = tested on: wheat (Triticum aestivum); experiment: Test Example 1 upland field foliage treatment, crop phytotoxicity; settings: Table 4, upland field foliage treatment, index 0-5
Method: as §4, §2, §3

[11] = tested on: soybean (Glycine max); experiment: as above; settings: Table 4, upland field foliage treatment, index 0-5
Method: as §4, §2, §3

[12] = paddy field treatment, wettable powder, 21st day after the dropping
[13] = Table 6, paddy field treatment, 21st day after dropping

Row | Structure (SMILES) | Herbicidal activity OS (phytotoxicity to rice) [1] | Herbicidal activity AM [2, 12] | Herbicidal activity EC [3, 12] | Herbicidal activity MV [4, 12] | Herbicidal activity SJ [5, 12] | Herbicidal activity (phytotoxicity) OS [1] | Herbicidal activity AM [2, 13] | Herbicidal activity EC [3, 13] | Herbicidal activity MV [4, 13] | Herbicidal activity SJ [5, 13] | other results
1 | CON=C(Cn1cc(C)c(-c2ccccc2)n1)C(=O)NC(C)c1ccccc1 (stereo not shown) [Compound 31] | 0 (herbicidal effect of not less than 0% and less than 10%, or phytotoxicity of 0% or more and less than 10%) | 4 (herbicidal effect of not less than 70% and less than 90%, or phytotoxicity of 70% or more and less than 90%) | 3 (herbicidal effect of not less than 50% and less than 70%, or phytotoxicity of 50% or more and less than 70%) | 5 (herbicidal effect of not less than 90%, or phytotoxicity of 90% or more) | 4 (herbicidal effect of not less than 70% and less than 90%, or phytotoxicity of 70% or more and less than 90%) | – | – | – | – | – | –
2 | CNC(=O)C(Cn1cc(C)c(-c2ccccc2C)n1)=NOC [Compound 35] | 0 (herbicidal effect of not less than 0% and less than 10%, or phytotoxicity of 0% or more and less than 10%) | 4 (herbicidal effect of not less than 70% and less than 90%, or phytotoxicity of 70% or more and less than 90%) | 5 (herbicidal effect of not less than 90%, or phytotoxicity of 90% or more) | 4 (herbicidal effect of not less than 70% and less than 90%, or phytotoxicity of 70% or more and less than 90%) | 4 (herbicidal effect of not less than 70% and less than 90%, or phytotoxicity of 70% or more and less than 90%) | – | – | – | – | – | –
3 | CNC(=O)C(Cn1cc(C)c(-c2ccc(C(C)C)cc2)n1)=NOC [Compound 38] | 0 (herbicidal effect of not less than 0% and less than 10%, or phytotoxicity of 0% or more and less than 10%) | 5 (herbicidal effect of not less than 90%, or phytotoxicity of 90% or more) | 5 (herbicidal effect of not less than 90%, or phytotoxicity of 90% or more) | 5 (herbicidal effect of not less than 90%, or phytotoxicity of 90% or more) | 5 (herbicidal effect of not less than 90%, or phytotoxicity of 90% or more) | – | – | – | – | – | –
4 | CNC(=O)C(Cn1cc(C)c(-c2ccc(C(F)(F)F)cc2)n1)=NOC [Compound 40] | 0 (herbicidal effect of not less than 0% and less than 10%, or phytotoxicity of 0% or more and less than 10%) | 5 (herbicidal effect of not less than 90%, or phytotoxicity of 90% or more) | 5 (herbicidal effect of not less than 90%, or phytotoxicity of 90% or more) | 5 (herbicidal effect of not less than 90%, or phytotoxicity of 90% or more) | 5 (herbicidal effect of not less than 90%, or phytotoxicity of 90% or more) | – | – | – | – | – | –
5 | CNC(=O)C(Cn1cc(C)c(-c2cccc(Br)c2)n1)=NOC [Compound 49] | 1 (herbicidal effect of not less than 10% and less than 30%, or phytotoxicity of 10% or more and less than 30%) | 5 (herbicidal effect of not less than 90%, or phytotoxicity of 90% or more) | 5 (herbicidal effect of not less than 90%, or phytotoxicity of 90% or more) | 5 (herbicidal effect of not less than 90%, or phytotoxicity of 90% or more) | 5 (herbicidal effect of not less than 90%, or phytotoxicity of 90% or more) | – | – | – | – | – | –
6 | CNC(=O)C(Cn1cc(C)c(-c2c(F)cccc2F)n1)=NOC [Compound 58, 2-methoxyimino-3-((2′,6′-difluorophenyl)-4-methyl-pyrazole)-1-yl-propanoic acid-N-methylamide] | – | – | – | – | – | 1 (herbicidal effect of not less than 10% and less than 30%, or phytotoxicity of 10% or more and less than 30%) | 5 (herbicidal effect of not less than 90%, or phytotoxicity of 90% or more) | 5 (herbicidal effect of not less than 90%, or phytotoxicity of 90% or more) | 5 (herbicidal effect of not less than 90%, or phytotoxicity of 90% or more) | 5 (herbicidal effect of not less than 90%, or phytotoxicity of 90% or more) | –
7 | CNC(=O)C(Cn1cc(C)c(-c2cc(F)cc(F)c2)n1)=NOC [Compound 60] | – | – | – | – | – | 0 (herbicidal effect of not less than 0% and less than 10%, or phytotoxicity of 0% or more and less than 10%) | 5 (herbicidal effect of not less than 90%, or phytotoxicity of 90% or more) | 5 (herbicidal effect of not less than 90%, or phytotoxicity of 90% or more) | 5 (herbicidal effect of not less than 90%, or phytotoxicity of 90% or more) | 5 (herbicidal effect of not less than 90%, or phytotoxicity of 90% or more) | –
8 | CNC(=O)C(Cn1cc(C)c(-c2cc(Cl)ccc2Cl)n1)=NOC [Compound 73] | – | – | – | – | – | 0 (herbicidal effect of not less than 0% and less than 10%, or phytotoxicity of 0% or more and less than 10%) | 4 (herbicidal effect of not less than 70% and less than 90%, or phytotoxicity of 70% or more and less than 90%) | 5 (herbicidal effect of not less than 90%, or phytotoxicity of 90% or more) | 5 (herbicidal effect of not less than 90%, or phytotoxicity of 90% or more) | 4 (herbicidal effect of not less than 70% and less than 90%, or phytotoxicity of 70% or more and less than 90%) | –
9 | CNC(=O)C(Cn1cc(C)c(-c2ccc(OC)c(F)c2)n1)=NOC [Compound 76] | – | – | – | – | – | 0 (herbicidal effect of not less than 0% and less than 10%, or phytotoxicity of 0% or more and less than 10%) | 5 (herbicidal effect of not less than 90%, or phytotoxicity of 90% or more) | 5 (herbicidal effect of not less than 90%, or phytotoxicity of 90% or more) | 5 (herbicidal effect of not less than 90%, or phytotoxicity of 90% or more) | 5 (herbicidal effect of not less than 90%, or phytotoxicity of 90% or more) | –
10 | CNC(=O)C(Cn1cc(C)c(-c2ccc(C(F)(F)F)cc2F)n1)=NOC [Compound 85] | – | – | – | – | – | – | – | – | – | – | Herbicidal activity SV: Setaria viridis [6]: 4 (herbicidal effect of not less than 70% and less than 90%, or phytotoxicity of 70% or more and less than 90%); Herbicidal activity SM: Stellaria media [7]: 5 (herbicidal effect of not less than 90%, or phytotoxicity of 90% or more); Herbicidal activity CA: Chenopodium album [8]: 5 (herbicidal effect of not less than 90%, or phytotoxicity of 90% or more); Herbicidal activity DA: Digitaria adscendens [9]: 4 (herbicidal effect of not less than 70% and less than 90%, or phytotoxicity of 70% or more and less than 90%); Herbicidal activity (phytotoxicity) TA: Wheat (Triticum aestivum) [10]: 0 (herbicidal effect of not less than 0% and less than 10%, or phytotoxicity of 0% or more and less than 10%); Herbicidal activity (phytotoxicity) GM: Soybean (Glycine max) [11]: 0 (herbicidal effect of not less than 0% and less than 10%, or phytotoxicity of 0% or more and less than 10%)
11 | CNC(=O)C(Cn1cc(C)c(-c2ccc(C(F)(F)F)c(F)c2)n1)=NOC [Compound 87] | – | – | – | – | – | 0 (herbicidal effect of not less than 0% and less than 10%, or phytotoxicity of 0% or more and less than 10%) | 5 (herbicidal effect of not less than 90%, or phytotoxicity of 90% or more) | 5 (herbicidal effect of not less than 90%, or phytotoxicity of 90% or more) | 5 (herbicidal effect of not less than 90%, or phytotoxicity of 90% or more) | 5 (herbicidal effect of not less than 90%, or phytotoxicity of 90% or more) | –
12 | CNC(=O)C(Cn1cc(C)c(-c2ccc(F)c(C(F)(F)F)c2)n1)=NOC [Compound 90] | – | – | – | – | – | 0 (herbicidal effect of not less than 0% and less than 10%, or phytotoxicity of 0% or more and less than 10%) | 5 (herbicidal effect of not less than 90%, or phytotoxicity of 90% or more) | 5 (herbicidal effect of not less than 90%, or phytotoxicity of 90% or more) | 5 (herbicidal effect of not less than 90%, or phytotoxicity of 90% or more) | 4 (herbicidal effect of not less than 70% and less than 90%, or phytotoxicity of 70% or more and less than 90%) | –
